The text below walks through data of US9453849B2, “Methods for staining cells for identification and sorting” (PREMIUM GENETICS (UK) LIMITED, priority 2005, dated 2016).

Read-outs that look alike come from different tables or passages of the source.

One data set deals with DNA. The settings on record: cited from earlier work.
The next data set has as its system cell membranes. The settings on record: not told; cited from earlier work.

From the text for Bovine sperm: A sample cell was formed by two parallel glass slides coated with 1,500-2000 angstroms (Å) of indium tin oxide (ITO). The slides were separated by fragments of number zero glass cover slips, yielding a slide separation of 100 millimeters (mm).
The sample cell was connected to a resistor-capacitator (RC) circuit by alligator clips. A direct current (DC) power supply was used to charge a capacitor. When a switch was thrown, the discharging capacitor generated a time-dependant and spatially uniform electric field across the sample. An oscilloscope was used to monitor the voltage across the sample cell as a function of time.
The RC circuit formed by the sample cell and capacitor allowed for a well-controlled electric field to be generated. The resistance (R) of the circuit was left floating—that is, determined by the geometry and content of the sample cell. Typical R values ranged from 2-10,000 watts (W) depending primarily on the electrical conductivity of the buffer. The capacitance was varied from 0.1 millifarads (mF) to 1000 mF.
Bovine sperm that had been previously frozen were thawed for 60 seconds in a 96° F. water bath. Sperm were then centrifuged at 2,000 rotations per minute (rpm) for two minutes and the supernatant decanted. Sperm were then re-suspended with 0.35 M sucrose to partially dehydrate the sperm. The sperm solution was then incubated at 96° F. for 15 minutes and then transferred to the sample cell of the electroporation unit.
A voltage was applied to the capacitor circuit, and then the power supply was disconnected. A switch was then thrown and the capacitor discharged across the sample cell. These steps were carried out within 15 seconds of transferring the sperm to the sample cell to retain a random orientation of sperm with respect to the electric field. Electroporation was carried out on sperm in isotonic (0.25 M sucrose) and hypertonic (0.35 M sucrose) solutions. In each case, 10 V was applied to the capacitor and a time constant of 0.26 milliseconds (ms) measured.
A solution of 0.1 M sucrose and the DNA-specific dye, propidium iodide, was then injected into the sample cell. Fluorescence microscopy is used to image the sperm.
To distinguish fluorescent dead cells from fluorescent live cells, sperm motility was assessed.

As to `Cc1c2oc3c(C)c(N)cc(C(=O)N[C@@H]4C(=O)N[C@H](C(C)C)C(=O)N5CCC[C@H]5C(=O)N(C)CC(=O)N(C)[C@@H](C(C)C)C(=O)O[C@@H]4C)c3nc-2c(C(=O)N[C@@H]2C(=O)N[C@H](C(C)C)C(=O)N3CCC[C@H]3C(=O)N(C)CC(=O)N(C)[C@@H](C(C)C)C(=O)O[C@@H]2C)c(N)c1=O` [7-AAD (7-amino-actinomycin D), 7-amino-actinomycin D], the “base selectivity (Applications)” value with DNA is “GC-selective”.
Take `COc1ccc2nc3cc(Cl)ccc3c(N)c2c1` [ACMA, 9-amino-6-chloro-2-methoxyactridine]: the “base selectivity (Applications)” value in the data set on DNA is “AT-selective”.
For `COc1ccc2nc3cc(Cl)ccc3c(NCCCNCCCCNCCCNc3c4ccc(Cl)cc4nc4ccc(OC)cc34)c2c1` [Acridine homodimer], in the data set on DNA, the “DNA affinity (Applications)” value is recorded as “High-affinity DNA binding” and the “base selectivity (Applications)” value is reported as “AT-selective”. Also, the “permeability to cell membranes (Applications)” value (shortened to “permeability to cell membranes”) in the data set on cell membranes is on record as “Impermeant”.
Regarding `N=C(N)c1ccc(-c2cc3ccc(C(=N)N)cc3[nH]2)cc1` [DAPI], in the data set on DNA, the “base selectivity (Applications)” value was “AT-selective”. Further, in the data set with cell membranes, the “permeability to cell membranes” value is given as “Semi-permeant”.
With `CN1CCN(c2ccc3nc(-c4ccc5nc(-c6ccc(N(C)C)cc6)[nH]c5c4)[nH]c3c2)CC1` [Hoechst 34580], in the data set with DNA, the “base selectivity (Applications)” value is reported as “AT-selective” and the “dsDNA selectivity (Applications)” value is listed as “dsDNA-selective binding”.
Regarding `CC[n+]1c(/C=C/C=C/c2ccc(N(C)C)cc2)ccc2cc(N(C)C)ccc21.[O-][Cl+3]([O-])([O-])[O-]` [LDS 751], the “permeability to cell membranes” value in the data set on cell membranes is “Permeant”.
Regarding `CC[N+](C)(CC)CCC[n+]1c(-c2ccccc2)c2cc(N)ccc2c2ccc(N)cc21.[I-].[I-]` [propidium iodide], the “increase in the number of damaged and non-motile sperm” value with Bovine sperm is listed as 68%. Besides, the “loss of motile sperm compared to the control” value in the data set on Bovine sperm turned out to be 70%. The “motile and fluorescent sperm” value is “did not yield motile and fluorescent sperm” in the data set on Bovine sperm (control samples unexposed to electric fields); “motile and fluorescent sperm were observed” in the data set with Bovine sperm (electroporated, 10 V, time constant 0.26 ms, hypertonic/hypotonic solution (0.35 M sucrose, then 0.1 M sucrose with dye)); “motile and fluorescent sperm were observed” with Bovine sperm (electroporated, 10 V, time constant 0.26 ms, isotonic solution (0.25 M sucrose)). Besides, the “enhancement of the number of motile and fluorescent sperm” value in the data set on Bovine sperm (hypertonic/hypotonic solution compared with isotonic solution) is given as “approximately five-ten”. Besides, the “fluorescence of observed motile sperm” value with Bovine sperm (hypertonic/hypotonic solution exposed to the electric field) is reported as “displayed fluorescence”. Also, the “permeability to cell membranes” value in the data set with cell membranes was “Impermeant”.
Turning to “Ethidium homodimer-1 [Ethidium homodimer-1 (EthD-1)]”, the “DNA affinity (Applications)” value in the data set on DNA is “High-affinity DNA labeling”.
Take “Ethidium homodimer-2 [Ethidium homodimer-2 (EthD-2)]”: the “DNA affinity (Applications)” value with DNA is reported as “Very high-affinity DNA labeling”.
